One series addresses T1, human mGluR5a receptor (Homo sapiens, UniProt P41594).
T1 construct: cDNA subcloned into pcDNA3.1(-)
The series can be described thus: Cell-based functional Ca2+ mobilization assay (FDSS), potentiation of glutamate EC20 response. Conditions: for EC50: HEK cells transfected with human mGluR5 (H10H or H12H), in presence of EC20 glutamate. The method, boiled down: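 HEK293A cells stably expressing human mGluR5a (H10H or H12H clones), plated overnight in glutamate-glutamine-free medium, loaded with Ca2+-sensitive dye (e.g. Fluo-4) and read on FDSS.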
(In general: A change in cytosolic calcium serves as a functional read-out for many receptors and channels.)

Where [1] appears, read: maximum % effect in concentration-response curve, as percent of response to maximally effective glutamate.

Each structure is given as a SMILES string. “And” between values parts separate entries of the source, which are not always exact repeats. Identical values can stand only once. Like-named read-outs stand apart in the source and are kept apart here.

Usually Emax stands for the size of the effect at its maximum, as opposed to the concentration needed. What is called melting point is the temperature of the solid-liquid transition.

T1 sequence (P41594 21-1180 isoform P41594-2 limits assumed): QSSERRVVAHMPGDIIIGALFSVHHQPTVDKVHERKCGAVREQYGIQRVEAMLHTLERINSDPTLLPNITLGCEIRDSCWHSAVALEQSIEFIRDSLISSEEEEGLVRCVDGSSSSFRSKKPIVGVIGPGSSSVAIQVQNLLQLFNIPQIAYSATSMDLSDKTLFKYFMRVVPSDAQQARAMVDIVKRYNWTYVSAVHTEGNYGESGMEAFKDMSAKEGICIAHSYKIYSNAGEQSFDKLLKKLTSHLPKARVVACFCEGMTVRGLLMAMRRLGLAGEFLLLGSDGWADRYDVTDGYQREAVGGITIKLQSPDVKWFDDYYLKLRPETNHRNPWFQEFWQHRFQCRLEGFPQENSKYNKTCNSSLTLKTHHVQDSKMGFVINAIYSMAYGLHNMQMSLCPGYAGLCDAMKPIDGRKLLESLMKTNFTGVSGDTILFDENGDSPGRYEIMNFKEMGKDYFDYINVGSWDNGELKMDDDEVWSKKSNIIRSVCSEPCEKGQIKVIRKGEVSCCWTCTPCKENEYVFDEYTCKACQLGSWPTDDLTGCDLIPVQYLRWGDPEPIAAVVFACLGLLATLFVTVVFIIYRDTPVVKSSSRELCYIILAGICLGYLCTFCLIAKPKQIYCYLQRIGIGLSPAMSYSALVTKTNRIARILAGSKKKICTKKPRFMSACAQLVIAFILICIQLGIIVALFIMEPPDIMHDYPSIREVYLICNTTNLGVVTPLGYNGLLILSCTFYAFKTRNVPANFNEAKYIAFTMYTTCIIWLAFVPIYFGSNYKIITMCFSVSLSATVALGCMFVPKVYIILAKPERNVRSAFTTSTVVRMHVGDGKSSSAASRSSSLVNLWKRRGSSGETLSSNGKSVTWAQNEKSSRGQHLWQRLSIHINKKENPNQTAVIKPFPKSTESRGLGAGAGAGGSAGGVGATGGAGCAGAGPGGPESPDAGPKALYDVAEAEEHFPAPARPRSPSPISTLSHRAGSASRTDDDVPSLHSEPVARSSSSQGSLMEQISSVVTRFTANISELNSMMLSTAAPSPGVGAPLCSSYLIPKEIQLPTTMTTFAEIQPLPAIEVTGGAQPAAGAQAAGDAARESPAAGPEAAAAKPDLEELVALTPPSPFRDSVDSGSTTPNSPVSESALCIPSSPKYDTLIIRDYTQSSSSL

As to `Cc1cccc(OCc2cc3n(n2)CCN(c2ccc(F)cc2)C3=O)c1` [Example 166], the melting point was 182.5 °C. In addition, the EC50 on human mGluR5a receptor (read-out: EC50) stood at 95 nM. Moreover, the maximal effect (Emax) at human mGluR5a receptor (setting [1]) is 64%.
The corresponding values for `O=C1c2cc(COc3cncc(F)c3)nn2CCN1CC1CC1` [Example 171] are 110.7 °C, above 10000 nM and 51%.
`Cc1cc(OCc2cc3n(n2)CCN(c2ccc(F)cc2)C3=O)ccn1` [Example 174]: the melting point was above 300 °C. The EC50 at human mGluR5a receptor (read-out: EC50) is 1260 nM. Besides, the Emax at human mGluR5a receptor (setting [1]) is 34%.
The corresponding values for `O=C1c2cc(COc3cccc(F)c3)nn2CCN1c1ccc(F)cn1` [Example 178] are above 300 °C, 115 nM and 61%.
The corresponding values for `O=C1c2cc(COc3ccc(F)cc3)nn2CCN1c1ccc(F)cn1` [Example 179] are above 300 °C, 151 nM and 60%.
In the same order, the values of `O=C1c2cc(COc3ccc(F)cn3)nn2CCN1c1ccc(F)cc1` [Example 181] are 239.4 °C, above 10000 nM and 52%.
As for `Cc1ccc(OCc2cc3n(n2)CCN(c2ccc(F)cc2)C3=O)nc1` [Example 183], the melting point was 236.2 °C. Also, the EC50 at human mGluR5a receptor (read-out: EC50) is above 30200 nM. Besides, on human mGluR5a receptor (setting [1]), the maximum response (Emax) turned out to be 15%.
In the same order, the values of `Cc1cccnc1OCc1cc2n(n1)CCN(c1ccc(F)cc1)C2=O` [Example 185] are 270.1 °C, above 10000 nM and 51%.
In the same order, the values of `O=C1c2cc(COc3ncccc3F)nn2CCN1c1ccc(F)cc1` [Example 187] are 165 °C, 2190 nM and 60%.
The corresponding values for `Cc1cnccc1OCc1cc2n(n1)CCN(c1ccc(F)cc1)C2=O` [Example 189] are 168.3 °C, 4900 nM and 45%.
The compound `O=C1c2cc(COc3ccccc3F)nn2CCN1c1ccc(F)cc1` [Example 190] gave a melting point of 183.3 °C. Further, the EC50 at human mGluR5a receptor (EC50 (nM)) came to 145 nM. Besides, the Emax on human mGluR5a receptor (setting [1]) is 66%.
Compound `Cc1ccccc1OCc1cc2n(n1)CCN(c1ccc(F)cc1)C2=O` [Example 191] gave a melting point of 132.8 °C. In addition, the EC50 at human mGluR5a receptor (read-out: EC50) worked out at 427 nM. The maximum response (Emax) at human mGluR5a receptor (setting [1]) came out at 57%.
In the same order, the values of `N#Cc1ccnc(OCc2cc3n(n2)CCN(c2ccc(F)cc2)C3=O)c1` [Example 193] are 202.6 °C, 437 nM and 53%.
The corresponding values for `O=C1c2cc(COc3ncccn3)nn2CCN1c1ccc(F)cc1` [Example 194] are 179.5 °C, above 10000 nM and 50%.
`COc1ccnc(OCc2cc3n(n2)CCN(c2ccc(F)cc2)C3=O)c1` [Example 195] showed a melting point above 300 °C. Also, at human mGluR5a receptor (read-out: EC50), the EC50 is above 10000 nM. The Emax on human mGluR5a receptor (setting [1]) turned out to be 40%.
The corresponding values for `O=C1c2cc(COc3cnccn3)nn2CCN1c1ccc(F)cc1` [Example 197] are 144.8 °C, above 10000 nM and 58%.
The compound `Cc1cncc(OCc2cc3n(n2)CCN(c2ccc(F)cc2)C3=O)n1` [Example 200] returned a melting point of 156.6 °C. In addition, the EC50 on human mGluR5a receptor (read-out: EC50) is above 30200 nM. For the same compound, on human mGluR5a receptor (setting [1]), the Emax was determined as 21%.
The corresponding values for `COc1cc(N2CCn3nc(COc4ccccn4)cc3C2=O)ccc1F` [Example 204] are 143.9 °C, 407 nM and 69%.
In the same order, the values of `Cc1cccc(N2CCn3nc(COc4ccccn4)cc3C2=O)n1` [Example 206] are 109.8 °C, 1510 nM and 67%.
The corresponding values for `Cc1ccc(N2CCn3nc(COc4ccccn4)cc3C2=O)cc1` [Example 218] are above 300 °C, 470 nM and 69%.
As for `COc1cccc(N2CCn3nc(COc4ccc(F)cc4)cc3C2=O)c1` [Example 220], the melting point came to 130.4 °C. In addition, the EC50 at human mGluR5a receptor (read-out: EC50) is 350 nM. Moreover, the EC50 at human mGluR5a receptor (read-out: pEC50 (converted)) is 355 nM. In addition, the maximal response (Emax) at human mGluR5a receptor (setting [1]) came out at 63%.
On to `COc1ccccc1N1CCn2nc(COc3ccc(F)cc3)cc2C1=O` [Example 221], for which the melting point worked out at 117.3 °C. Further, the EC50 on human mGluR5a receptor (read-out: EC50) was 190 nM. Further, the Emax at human mGluR5a receptor (setting [1]) turned out to be 66%.
In turn, `Cc1ccccc1N1CCn2nc(COc3ccc(F)cc3)cc2C1=O` [Example 223] had a melting point of 148.2 °C. Also, at human mGluR5a receptor (read-out: EC50), the EC50 came out at 98 nM. Moreover, the EC50 on human mGluR5a receptor (read-out: pEC50 (converted)) is 100 nM. Besides, the Emax at human mGluR5a receptor (setting [1]) was found to be 63%.
In turn, `COc1ncccc1N1CCn2nc(COc3ccc(F)cc3)cc2C1=O` [Example 229] had a melting point of 267.4 °C. The EC50 at human mGluR5a receptor (read-out: EC50) was found to be 380 nM. Also, the Emax on human mGluR5a receptor (setting [1]) came out at 66%.
In the same order, the values of `N#Cc1cccc(OCc2cc3n(n2)CCN(c2ccc(F)cn2)C3=O)c1` [Example 233] are 181.3 °C, 525 nM and 54%.
Take `CC1CN(c2ccc(F)cc2)C(=O)c2cc(COc3cccc(C#N)c3)nn21` (stereo not shown) [Example 241]: the melting point amounted to 110.2 °C. Also, the EC50 at human mGluR5a receptor (read-out: EC50) was above 30200 nM. Also, the maximum response (Emax) at human mGluR5a receptor (setting [1]) was 21%.
The compound `Cc1cccc(OCc2cc3n(n2)C(C)CN(c2ccc(F)cc2)C3=O)c1` (stereo not shown) [Example 242] registered a melting point of 70.2 °C. In addition, the EC50 on human mGluR5a receptor (read-out: EC50) is above 30200 nM. Moreover, the maximal response (Emax) at human mGluR5a receptor (setting [1]) came to 21%.
On to `CNc1nc(N2CCn3nc(COc4ccccc4)cc3C2=O)ncc1F` [Example 279], for which the melting point turned out to be 176.6 °C. Moreover, at human mGluR5a receptor (read-out: EC50), the EC50 stood at 224 nM. On human mGluR5a receptor (setting [1]), the maximal response (Emax) stood at 69%.
The corresponding values for `CN(C)c1cncc(N2CCn3nc(COc4ccccc4)cc3C2=O)n1` [Example 280] are 215.1 °C, 355 nM and 70%.
The corresponding values for `CN(C)c1ccnc(N2CCn3nc(COc4ccccc4)cc3C2=O)c1` [Example 282] are 190.2 °C, 1100 nM and 64%.
`CN(C)c1cccc(N2CCn3nc(COc4ccccc4)cc3C2=O)n1` [Example 286] displayed a melting point of 143.7 °C. The EC50 at human mGluR5a receptor (read-out: EC50) turned out to be 30 nM. Further, the EC50 on human mGluR5a receptor (read-out: pEC50 (converted)) was 36.3 nM and 29.5 nM. At human mGluR5a receptor (setting [1]), the Emax was determined as 76% and the “Emax (%)” value came to 69%.
As for `CN(C)c1ccc(N2CCn3nc(COc4ccccc4)cc3C2=O)nc1` [Example 287], the melting point was determined as 164.8 °C. For the same compound, at human mGluR5a receptor (read-out: EC50), the EC50 came to 603 nM. For the same compound, at human mGluR5a receptor (setting [1]), the maximal response (Emax) was found to be 67%.
The corresponding values for `Cc1ccc(N(C)C)nc1N1CCn2nc(COc3ccccc3)cc2C1=O` [Example 291] are 117.9 °C, 54 nM and 63%.
Consider `Cc1cc(F)cc(N2CCn3nc(COc4ccccc4)cc3C2=O)c1` [Example 297], for which the melting point was 116.3 °C. In addition, the EC50 on human mGluR5a receptor (read-out: EC50) is 76 nM. The Emax on human mGluR5a receptor (setting [1]) stood at 71%.
In the same order, the values of `COc1cc(F)cc(N2CCn3nc(COc4ccccc4)cc3C2=O)c1` [Example 299] are 127.8 °C, 110 nM and 64%.
In the same order, the values of `O=C1c2cc(COc3ccccc3)nn2CCN1c1nccc(N2CCCC2)n1` [Example 309] are 143.2 °C, 3550 nM and 56%.
The corresponding values for `CN(C)c1cccc(OCc2cc3n(n2)CCN(c2ccc(F)cc2)C3=O)n1` [Example 310] are 153.8 °C, above 30200 nM and 26%.
`CN(C)c1ccnc(OCc2cc3n(n2)CCN(c2ccc(F)cc2)C3=O)c1` [Example 312] returned a melting point above 300 °C. Moreover, on human mGluR5a receptor (read-out: EC50), the EC50 is above 30200 nM. On human mGluR5a receptor (setting [1]), the Emax is 25%.
Take `CN(C)c1cccc(N2CCn3nc(COc4cccc(F)c4)cc3C2=O)n1` [Example 316]: the melting point stood at 121.2 °C. In addition, at human mGluR5a receptor (read-out: pEC50 (converted)), the EC50 was 40.7 nM. Besides, the maximal effect (Emax) at human mGluR5a receptor (setting [1]) worked out at 74%.
Compound `COc1nc(N2CCn3nc(COc4ccc(F)cc4)cc3C2=O)ncc1F` [Example 318] came in with a melting point above 300 °C. For the same compound, the EC50 at human mGluR5a receptor (read-out: EC50) came out at 240 nM. The Emax on human mGluR5a receptor (setting [1]) came out at 72%.
In turn, `Cc1ccc(N2CCn3nc(COc4ccccc4)cc3C2=O)s1` [Example 319] yielded a melting point of 194.5 °C. Besides, the EC50 on human mGluR5a receptor (read-out: pEC50 (converted)) is 28.8 nM. On human mGluR5a receptor (setting [1]), the maximal effect (Emax) is 68%.
Turning to `Cn1cnc(N2CCn3nc(COc4ccccc4)cc3C2=O)c1` [Example 321], the melting point is 203.7 °C. Further, the EC50 on human mGluR5a receptor (read-out: EC50) is above 30200 nM. In addition, on human mGluR5a receptor (setting [1]), the Emax was determined as 23%.
The corresponding values for `COc1cnc(N2CCn3nc(COc4ccccc4)cc3C2=O)nc1` [Example 353] are 266.9 °C, 280 nM and 61%.
`O=C1c2cc(COc3ccc(O)cc3)nn2CCN1c1ccc(F)cn1` [Example 355] gave a melting point of 212.7 °C. The EC50 at human mGluR5a receptor (read-out: EC50) came to 3630 nM. Besides, the maximum response (Emax) at human mGluR5a receptor (setting [1]) was 55%.
